Columns and labels:
[1] = test system: plasma corticosterone (HPA axis suppression); details: fluticasone 0.1 mg/kg; ciclesonide 0.01 to 0.1 mg/kg/day; 28-day; cited from earlier work
adrenal [2] = test: six-day repeat dose side effect study: adrenal involution; format: in vivo, Sprague–Dawley rats; details: at the ED50 dose (30 μg fluticasone, 100 μg ciclesonide), IT once daily, 6 days
thymus [3] = details: 7-day study, cited from earlier work
adrenal [4] = details: 7-day study, cited from earlier work
[5] = cited from earlier work
[6] = particle size distribution before and after wet milling; format: physicochemical; details: for particle size D50 of the bulk material: before micronization; for particle size D50 after micronization: nanosuspension, wet milling
[7] = test system: LPS-induced inflammation model in rats; format: in vivo, Sprague–Dawley rats; details: for ED50 based on neutrophil infiltration and cytokine production data: IT instillation of nanosuspension; for ED50 based on neutrophil infiltration and cytokine production data / EDmax / dose of maximum effect (EDmax): rat LPS model; for ED50 in the LPS assay: IT nanosuspension prior to LPS challenge, inhibition of neutrophil infiltration or TNFα production in BALF; for EDmax / dose of maximum effect (EDmax): IT nanosuspension
bone growth = details: 7-day study; cited from earlier work
[8] = test system: antigen-induced airway inflammation (eosinophils in BALF); details: cited from earlier work; for ED50, antigen-induced influx of eosinophils in airway BALF and lung tissue: IT-administered; for ED50 for the inhibition of eosinophil infiltration into BALF: as quoted with the 7-day side effect study
thymus [9] = test: six-day repeat dose side effect study: thymus involution; format: in vivo, Sprague–Dawley rats; details: at the ED50 dose, IT once daily, 6 days
[10] = six-day repeat dose side effect study: plasma drug exposure by LC/MS/MS; format: in vivo, Sprague–Dawley rats; details: 2 h post the last dose
[11] = background statement, no reference given; cited from earlier work
[12] = test system: plasma corticosterone (HPA axis suppression); test: six-day repeat dose side effect study: plasma corticosterone level; format: in vivo, Sprague–Dawley rats; details: ED50 doses, 30 μg fluticasone, 2 h following the last dose
[13] = IT administration, on the basis of dose

particle size D50 of the bulk material [6] [μm]	particle size D50 after micronization [6] [μm]	Compound	effect on plasma corticosterone levels [1]	average adrenal involution (adrenal [2]) [%]	plasma protein binding [5] [%]	ED50 based on neutrophil infiltration and cytokine production data [7] [mg]	ED50 in the LPS assay [7] [µg]	EDmax [7] [mg]	dose of maximum effect (EDmax) [7] [µg]	ED50, antigen-induced influx of eosinophils in airway BALF and lung tissue [8] [mg/kg]	ED50 for the inhibition of eosinophil infiltration into BALF [8] [mg/kg]	average thymus involution (thymus [9]) [%]	further results
56	0.22	CC(C)C(=O)OCC(=O)[C@@]12O[C@H](C3CCCCC3)O[C@@H]1C[C@H]1[C@@H]3CCC4=CC(=O)C=C[C@]4(C)[C@H]3[C@@H](O)C[C@@]12C [ciclesonide]	did not change corticosterone levels	7.6 ± 5.3	> 99	0.1	100	0.3	300	0.49	0.75	41.0 ± 4.3	fold less potent than fluticasone at inducing thymus involution (thymus [3]): sixfold; fold less potent than fluticasone at inducing adrenal involution (adrenal [4]): 44; fold less potent than fluticasone (ratio of ED50) ([7]; 100 μg/30 μg): threefold; fold less potent than fluticasone at decreasing bone growth (bone growth): 22; fold less potent than fluticasone in terms of ED50 ([8]; antigen-induced airway eosinophilia and Sephadex-induced lung edema): 7–9; ED50, inhibition of accumulation of eosinophils in BALF ([8]; separate study, same preclinical model): 0.5 mg/kg
		C[C@]12C=CC(=O)C=C1CC[C@@H]1[C@@H]2[C@@H](O)C[C@@]2(C)[C@H]1C[C@H]1O[C@@H](C3CCCCC3)O[C@]12C(=O)CO [des-CIC, desisobutyryl-ciclesonide]			> 99								ratio of systemic exposure, des-CIC versus fluticasone at ED50 doses [10]: greater than sixfold
35	0.24	CCC(=O)O[C@]1(C(=O)SCF)[C@H](C)C[C@H]2[C@@H]3C[C@H](F)C4=CC(=O)C=C[C@]4(C)[C@@]3(F)[C@@H](O)C[C@@]21C [fluticasone, fluticasone propionate]	significantly suppressed	16.6 ± 5.1	90	0.03	30	0.1	100	0.068	0.095	59.5 ± 5.8	bioavailability [11]: < 1%; clearance [11]: ~ liver blood flow; fold more potent at inducing thymus involution compared to ciclesonide (thymus [3]; [13]): sixfold; fold more potent at inducing adrenal involution compared to ciclesonide (adrenal [4]; [13]): approximately 44; fold lower level of plasma corticosterone than 100 μg ciclesonide [12]: approximately 10

Reference: publication PMC2893943 (Nanoscale Research Letters, 2010)
